In this experiment the test system is L1210 leukemia ip in BDF1 mice, survival T/C. Description: NCI In Vivo Anticancer Drug Screen. Data for tumor model L1210 Leukemia (intraperitoneal) in B6D2F1 (BDF1) mice. The settings on record: endpoint: mean survival time, higher = longer survival. In short, it runs like this: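 Antitumor effect is assessed in tumor-bearing animals. Survival in the compound arm is compared with a vehicle-dosed control arm and expressed as their quotient.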

Setting [1] is: dose: 25.0 mg/kg/injection, schedule: Q01DX009 (ip), vehicle: saline with Tween-80.
Setting [2] is: dose: 50.0 mg/kg/injection, schedule: Q01DX009 (ip), vehicle: saline with Tween-80.
Where [3] appears, read: dose: 50.0 mg/kg/injection, schedule: Q04DX003 (ip), vehicle: saline with Tween-80.
The mark [4] stands for this setting: dose: 100.0 mg/kg/injection, schedule: Q01DX009 (ip), vehicle: saline with Tween-80.
Setting [5] is: dose: 100.0 mg/kg/injection, schedule: Q04DX003 (ip), vehicle: saline with Tween-80.
The mark [6] stands for this setting: dose: 200.0 mg/kg/injection, schedule: Q04DX003 (ip), vehicle: saline with Tween-80.
Where [7] appears, read: dose: 400.0 mg/kg/injection, schedule: Q04DX003 (ip), vehicle: saline with Tween-80.
Where [8] appears, read: dose: 100.0 mg/kg/injection, schedule: Q01DX001 (ip), vehicle: carboxymethylcellulose (CMC).
[9] abbreviates: dose: 200.0 mg/kg/injection, schedule: Q01DX001 (ip), vehicle: carboxymethylcellulose (CMC).
The mark [10] stands for this setting: dose: 400.0 mg/kg/injection, schedule: Q01DX001 (ip), vehicle: carboxymethylcellulose (CMC).
Setting [11] is: dose: 200.0 mg/kg/injection, schedule: Q01DX009 (ip), vehicle: saline with Tween-80.

Results on 17 compounds are retold here after PubChem BioAssay AID248 (DTP/NCI, 2004).

“And” between values parts separate entries of the source, which are not always exact repeats. Equal values may be shown once. Inconclusive results and toxic doses are left out.

As to `C/C=C/C(=O)Nc1cc(C(F)(F)F)ccc1Cl`, the T/C is, setting by setting: under setting [1], 93 % of control and 97 % of control; under setting [2], 97 % of control and 89 % of control; under setting [3], 98 % of control; (dose: 100.0 mg/kg/injection, schedule: Q01DX001 (ip), vehicle: saline with Tween-80) 98 % of control; under setting [4], 96 % of control and 90 % of control; (dose: 100.0 mg/kg/injection, schedule: Q01DX009 (ip), vehicle: saline) 94 % of control and 102 % of control. Also, the T/C was 102 % of control and 109 % of control (dose: 100.0 mg/kg/injection, schedule: Q04DX002 (ip), vehicle: saline); 98 % of control and 89 % of control under setting [5]; 88 % of control (dose: 200.0 mg/kg/injection, schedule: Q01DX001 (ip), vehicle: saline with Tween-80); 88 % of control (dose: 200.0 mg/kg/injection, schedule: Q01DX009 (ip), vehicle: saline); 94 % of control and 103 % of control (dose: 200.0 mg/kg/injection, schedule: Q04DX002 (ip), vehicle: saline); 109 % of control under setting [6]. The T/C was 95 % of control (dose: 400.0 mg/kg/injection, schedule: Q04DX002 (ip), vehicle: saline) and 95 % of control under setting [7].
`O=S1(=O)CCNNCC1`: the T/C is 100 % of control (dose: 37.5 mg/kg/injection, schedule: Q01DX009 (ip), vehicle: saline); 109 % of control (dose: 75.0 mg/kg/injection, schedule: Q01DX009 (ip), vehicle: saline); 105 % of control (dose: 150.0 mg/kg/injection, schedule: Q01DX009 (ip), vehicle: saline); 103 % of control (dose: 300.0 mg/kg/injection, schedule: Q01DX009 (ip), vehicle: saline).
On to `c1ccc(-c2c3ccccc3c(-c3ccccc3)c3cc4ccccc4cc23)cc1`, for which the T/C was 95 % of control (dose: 100.0 mg/kg/injection, schedule: Q04DX002 (ip), vehicle: Klucel (hydroxypropylcellulose) (HPC)); 98 % of control (dose: 200.0 mg/kg/injection, schedule: Q04DX002 (ip), vehicle: Klucel (hydroxypropylcellulose) (HPC)); 92 % of control (dose: 400.0 mg/kg/injection, schedule: Q04DX002 (ip), vehicle: Klucel (hydroxypropylcellulose) (HPC)).
As to `Nc1nc(N)c2[nH]cnc2n1` (tested in a mixture with another compound), the T/C was 93 % of control under setting [8], 89 % of control under setting [9] and 94 % of control under setting [10].
For `COc1ccc2c(c1)CCC1(C)C2=CC(=O)/C1=C\[O-].COc1ccc2c(c1)CCC1(C)C2=CC(=O)/C1=C\[O-].[Cu+2]` (stereo unspecified), the T/C runs as follows: under setting [1], 108 % of control; under setting [2], 113 % of control; under setting [4], 97 % of control; (dose: 100.0 mg/kg/injection, schedule: Q04DX003 (ip), vehicle: saline sonified) 91 % of control.
Take `Cc1cc(C)cc(C(C)(C)C)c1`: the T/C under setting [5] was 92 % of control, the T/C under setting [6] was 92 % of control and the T/C under setting [7] is 95 % of control.
Consider `CCOC(=O)Nc1ccc(F)cc1OC`, for which the T/C was 107 % of control (dose: 100.0 mg/kg/injection, schedule: Q04DX002 (ip), vehicle: other); 104 % of control (dose: 200.0 mg/kg/injection, schedule: Q04DX002 (ip), vehicle: other); 96 % of control (dose: 400.0 mg/kg/injection, schedule: Q04DX002 (ip), vehicle: other).
Turning to `CC1(C)C(OS(C)(=O)=O)C(C)(C)C1OS(C)(=O)=O` (stereo unspecified), the T/C was 111 % of control (dose: 50.0 mg/kg/injection, schedule: Q01DX001 (ip), vehicle: carboxymethylcellulose (CMC)); 121 % of control under setting [8]; 108 % of control (dose: 100.0 mg/kg/injection, schedule: Q01DX001 (sc), vehicle: carboxymethylcellulose (CMC)); 100 % of control under setting [9]; 108 % of control (dose: 200.0 mg/kg/injection, schedule: Q01DX001 (sc), vehicle: carboxymethylcellulose (CMC)); 100 % of control under setting [10]. Further, under “dose: 400.0 mg/kg/injection, schedule: Q01DX001 (sc), vehicle: carboxymethylcellulose (CMC)”, the T/C was 100 % of control.
Take `c1ccc(C(c2ccccc2)c2ccc3ccccc3n2)cc1`: the T/C (dose: 100.0 mg/kg/injection, schedule: Q04DX003 (ip), vehicle: acetone) is 90 % of control; the T/C (dose: 200.0 mg/kg/injection, schedule: Q04DX003 (ip), vehicle: acetone) was 99 % of control; the T/C (dose: 400.0 mg/kg/injection, schedule: Q04DX003 (ip), vehicle: acetone) is 94 % of control.
In the case of `O=C(N/N=C/c1cccc(F)c1)c1ccccc1Cl`, the T/C runs as follows: under setting [2], 91 % of control; under setting [4], 102 % of control; under setting [11], 87 % of control.
Regarding `CCC(CC)C[N+](C)(C)C`, the T/C is, setting by setting: (dose: 75.0 mg/kg/injection, schedule: Q01DX001 (ip), vehicle: saline) 95 % of control; (dose: 150.0 mg/kg/injection, schedule: Q01DX001 (ip), vehicle: saline) 104 % of control.
Turning to `c1cc(C2CO2)ccc1Oc1ccc(C2CO2)cc1` (stereo unspecified), the T/C runs as follows: (dose: 1.0 mg/kg/injection, schedule: Q01DX Z (ip), vehicle: methylcellulose (MC)) 96 % of control; (dose: 3.3 mg/kg/injection, schedule: Q01DX Z (ip), vehicle: methylcellulose (MC)) 98 % of control; (dose: 10.0 mg/kg/injection, schedule: Q01DX Z (ip), vehicle: methylcellulose (MC)) 104 % of control; (dose: 33.0 mg/kg/injection, schedule: Q01DX Z (ip), vehicle: methylcellulose (MC)) 98 % of control; (dose: 100.0 mg/kg/injection, schedule: Q01DX Z (ip), vehicle: methylcellulose (MC)) 86 % of control.
For `CCOC(=O)CSc1nc2nc(Cl)c(Cl)nc2[nH]1`, the T/C runs as follows: under setting [1], 104 % of control; under setting [2], 98 % of control; under setting [4], 105 % of control; under setting [11], 96 % of control.
For `O=C1NC(c2ccccc2)(c2ccccc2)C(=O)N1CCN(CCCl)CCCl`, the T/C runs as follows: (dose: 12.5 mg/kg/injection, schedule: Q01DX009 (ip), vehicle: saline with Tween-80) 116 % of control; under setting [1], 102 % of control; under setting [3], 105 % of control; under setting [4], 121 % of control; under setting [5], 116 % of control and 121 % of control.
As for `CCCCC(CC)CNC(C)=O` (stereo unspecified), the T/C runs as follows: (dose: 100.0 mg/kg/injection, schedule: Q04DX003 (ip), vehicle: Klucel (hydroxypropylcellulose) (HPC)) 99 % of control; (dose: 200.0 mg/kg/injection, schedule: Q04DX003 (ip), vehicle: Klucel (hydroxypropylcellulose) (HPC)) 95 % of control.
As for `O=c1[nH]cc(F)c(=O)[nH]1.[Tl]`, the T/C is, setting by setting: (dose: 3.12 mg/kg/injection, schedule: Q04DX003 (ip), vehicle: water) 108 % of control; (dose: 6.25 mg/kg/injection, schedule: Q04DX003 (ip), vehicle: water) 107 % of control; (dose: 12.5 mg/kg/injection, schedule: Q01DX009 (ip), vehicle: Klucel (hydroxypropylcellulose) (HPC)) 102 % of control; (dose: 12.5 mg/kg/injection, schedule: Q04DX003 (ip), vehicle: water) 118 % of control.
On to `CNC(=O)CCC(NC(=O)c1ccc(N(C)Cc2cnc3nc(N)nc(N)c3n2)cc1)C(=O)O` (stereo unspecified), for which the T/C runs as follows: (dose: 25.0 mg/kg/injection, schedule: Q01DX009 (ip), vehicle: sodium bicarbonate) 116 % of control; (dose: 100.0 mg/kg/injection, schedule: Q01DX009 (ip), vehicle: sodium bicarbonate) 158 % of control.
